According to patent publication US9302991B2, “Arylamide derivatives as TTX-S blockers” (RaQualia Pharma Inc., priority 2010, dated 2016):

How the values were obtained:
human Nav1.3 channels = biological target: T1, human Nav1.3 channels (Homo sapiens, UniProt Q9NY46); assay: FRET assay, human Nav1.3 (EFS on FDSS); type: cell-based; details: HEK293 cells expressing human Nav1.3, read-out: IC50 against Nav1.3
T1 construct: expressed in transfected cells; host or cells: HEK293
Experimental: The inhibitory activities of compounds against voltage gated sodium channels are determined by methodology well known in the art.
The ability of the aryl substituted carboxamide derivatives of the formula (I) to inhibit the NaV1.3, Nav1.7 and Nav1.5 channels is measured by Fluorescence Resonance Energy Transfer (FRET) assay and electrophysiology assay described below.
This screen is used to determine the effects of compounds on human Nav1.3, human Nav1.7, and human Nav1.5 channels, utilising electrical field stimulation (EFS) system in 96-well plate format on FDSS (Hamamatsu Photonics) platform. The change of membrane potential is monitored with FRET dye pair, oxonol (DiSBAC2(3)) and coumarin (CC2-DMPE).
Each HEK293 cells expressing human Nav1.3 channels and HEK293 cells expressing human Nav1.5 channels are grown in T225 flasks, in a 5% CO2 humidified incubator to about 80% confluence. Media composition consists of Dulbecco's Modified Eagle Medium (high glucose), 10% FCS, 100 units/mL Penicillin, 100 microgram/mL Streptomycin and 500 microgram/mL Geneticine.
Protocol: • Seed each cell lines (1×10^5 cells/well) into poly-D-lysine coated 96-well plates prior to experimentation. • Incubate at 37° C. in 5% CO2 for 24 hours. • Wash each well with assay buffer (140 mM NaCl, 4.5 mM KCl, 10 mM D-Glucose, 2 mM CaCl2, 1 mM MgCl2, 10 mM HEPES, pH 7.4 adjusted with NaOH) twice. • Add 1st loading solution containing 10 microM CC2-DMPE and 0.06% Pluronic F-127 in assay buffer. • Incubate the plate at room temperature in dark for 1 hour. • Remove 1st loading solution and added 2nd loading solution containing 15 microM DiSBAC2(3), 0.555 mM VABSC-1 and 0.004% Pluronic F-127 in assay buffer. • Place the plate under the dark at room temperature for 25 minutes. • Add compound solutions into the assay plate. • Set the assay plate in FDSS and placed an EFS device on the plate. • Measure EFS-induced fluorescent response by FDSS.
The data are analyzed and reported as normalized ratios of intensities measured at […]. The process of calculating these ratios is performed as follows:
This analysis is performed using a computerized specific program designed for FDSS generated data. Fluorescence ratio values are plotted using XLfit to determine an IC50 value for each compound.

human Nav1.7 channels = biological target: T2, human Nav1.7 channels (Homo sapiens, UniProt Q15858); assay: FRET assay, human Nav1.7 (EFS on FDSS); type: cell-based; details: CHO cells expressing human Nav1.7, read-out: IC50 against Nav1.7
T2 construct: expressed in transfected cells; host or cells: CHO
T2 sequence (Q15858 whole entry): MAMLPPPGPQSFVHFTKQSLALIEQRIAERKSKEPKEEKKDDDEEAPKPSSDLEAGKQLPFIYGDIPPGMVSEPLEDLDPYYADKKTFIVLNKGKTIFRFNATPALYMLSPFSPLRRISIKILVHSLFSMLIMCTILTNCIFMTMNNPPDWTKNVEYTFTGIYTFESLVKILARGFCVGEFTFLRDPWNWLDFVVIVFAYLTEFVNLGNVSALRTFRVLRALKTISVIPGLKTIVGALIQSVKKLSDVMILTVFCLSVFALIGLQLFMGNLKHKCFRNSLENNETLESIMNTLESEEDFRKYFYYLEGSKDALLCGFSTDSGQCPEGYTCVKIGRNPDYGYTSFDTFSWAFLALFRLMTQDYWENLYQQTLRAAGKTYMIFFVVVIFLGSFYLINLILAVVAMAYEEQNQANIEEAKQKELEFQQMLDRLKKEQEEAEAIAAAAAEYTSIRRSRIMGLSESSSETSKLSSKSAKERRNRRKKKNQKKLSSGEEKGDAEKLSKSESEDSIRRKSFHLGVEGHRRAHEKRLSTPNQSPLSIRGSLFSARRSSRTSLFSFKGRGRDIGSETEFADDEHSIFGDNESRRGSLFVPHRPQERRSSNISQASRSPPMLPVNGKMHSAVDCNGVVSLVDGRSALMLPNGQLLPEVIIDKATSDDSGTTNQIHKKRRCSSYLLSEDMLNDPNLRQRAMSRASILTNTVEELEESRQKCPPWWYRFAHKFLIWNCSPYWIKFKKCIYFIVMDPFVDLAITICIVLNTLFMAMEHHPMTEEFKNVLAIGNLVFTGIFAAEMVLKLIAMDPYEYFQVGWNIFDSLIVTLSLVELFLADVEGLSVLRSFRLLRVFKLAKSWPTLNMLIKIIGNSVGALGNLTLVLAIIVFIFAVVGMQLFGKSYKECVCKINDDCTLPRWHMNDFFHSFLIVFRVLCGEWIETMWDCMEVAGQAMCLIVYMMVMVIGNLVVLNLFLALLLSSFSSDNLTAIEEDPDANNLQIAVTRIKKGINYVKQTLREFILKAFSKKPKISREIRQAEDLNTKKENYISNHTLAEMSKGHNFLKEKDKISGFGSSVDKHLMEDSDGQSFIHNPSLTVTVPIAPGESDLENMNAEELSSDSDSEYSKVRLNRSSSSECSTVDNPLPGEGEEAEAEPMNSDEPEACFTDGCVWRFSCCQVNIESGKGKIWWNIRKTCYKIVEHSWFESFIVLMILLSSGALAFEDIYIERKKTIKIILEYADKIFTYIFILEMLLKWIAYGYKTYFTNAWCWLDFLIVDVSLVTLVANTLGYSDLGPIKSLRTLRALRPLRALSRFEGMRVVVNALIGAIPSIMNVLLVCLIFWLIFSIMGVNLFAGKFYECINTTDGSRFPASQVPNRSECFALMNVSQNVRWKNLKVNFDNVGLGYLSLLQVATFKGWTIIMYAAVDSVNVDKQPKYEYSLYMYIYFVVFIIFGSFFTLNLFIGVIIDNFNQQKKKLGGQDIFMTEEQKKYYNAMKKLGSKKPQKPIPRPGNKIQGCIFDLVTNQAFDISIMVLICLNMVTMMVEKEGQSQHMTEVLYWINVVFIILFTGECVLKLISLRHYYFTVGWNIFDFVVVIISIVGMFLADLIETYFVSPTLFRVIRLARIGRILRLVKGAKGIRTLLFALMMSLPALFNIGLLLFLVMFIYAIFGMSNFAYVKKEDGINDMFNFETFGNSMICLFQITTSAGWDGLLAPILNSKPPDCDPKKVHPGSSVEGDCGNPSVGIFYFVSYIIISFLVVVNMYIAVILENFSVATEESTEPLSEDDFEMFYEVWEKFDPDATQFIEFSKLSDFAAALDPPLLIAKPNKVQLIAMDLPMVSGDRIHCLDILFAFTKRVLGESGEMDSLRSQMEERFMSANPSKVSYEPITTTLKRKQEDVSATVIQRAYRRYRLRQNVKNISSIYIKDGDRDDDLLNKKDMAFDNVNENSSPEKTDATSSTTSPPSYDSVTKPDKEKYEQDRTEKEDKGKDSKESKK
In short: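 IC50 was derived from normalized 440 nm fluorescence ratios of the EFS-evoked membrane-potential response read on FDSS. Recombinant CHO cells were sequentially dye-loaded with coumarin/oxonol FRET pair at room temperature in pH 7.4 buffer before compound addition.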

T1 sequence (Q9NY46 whole entry): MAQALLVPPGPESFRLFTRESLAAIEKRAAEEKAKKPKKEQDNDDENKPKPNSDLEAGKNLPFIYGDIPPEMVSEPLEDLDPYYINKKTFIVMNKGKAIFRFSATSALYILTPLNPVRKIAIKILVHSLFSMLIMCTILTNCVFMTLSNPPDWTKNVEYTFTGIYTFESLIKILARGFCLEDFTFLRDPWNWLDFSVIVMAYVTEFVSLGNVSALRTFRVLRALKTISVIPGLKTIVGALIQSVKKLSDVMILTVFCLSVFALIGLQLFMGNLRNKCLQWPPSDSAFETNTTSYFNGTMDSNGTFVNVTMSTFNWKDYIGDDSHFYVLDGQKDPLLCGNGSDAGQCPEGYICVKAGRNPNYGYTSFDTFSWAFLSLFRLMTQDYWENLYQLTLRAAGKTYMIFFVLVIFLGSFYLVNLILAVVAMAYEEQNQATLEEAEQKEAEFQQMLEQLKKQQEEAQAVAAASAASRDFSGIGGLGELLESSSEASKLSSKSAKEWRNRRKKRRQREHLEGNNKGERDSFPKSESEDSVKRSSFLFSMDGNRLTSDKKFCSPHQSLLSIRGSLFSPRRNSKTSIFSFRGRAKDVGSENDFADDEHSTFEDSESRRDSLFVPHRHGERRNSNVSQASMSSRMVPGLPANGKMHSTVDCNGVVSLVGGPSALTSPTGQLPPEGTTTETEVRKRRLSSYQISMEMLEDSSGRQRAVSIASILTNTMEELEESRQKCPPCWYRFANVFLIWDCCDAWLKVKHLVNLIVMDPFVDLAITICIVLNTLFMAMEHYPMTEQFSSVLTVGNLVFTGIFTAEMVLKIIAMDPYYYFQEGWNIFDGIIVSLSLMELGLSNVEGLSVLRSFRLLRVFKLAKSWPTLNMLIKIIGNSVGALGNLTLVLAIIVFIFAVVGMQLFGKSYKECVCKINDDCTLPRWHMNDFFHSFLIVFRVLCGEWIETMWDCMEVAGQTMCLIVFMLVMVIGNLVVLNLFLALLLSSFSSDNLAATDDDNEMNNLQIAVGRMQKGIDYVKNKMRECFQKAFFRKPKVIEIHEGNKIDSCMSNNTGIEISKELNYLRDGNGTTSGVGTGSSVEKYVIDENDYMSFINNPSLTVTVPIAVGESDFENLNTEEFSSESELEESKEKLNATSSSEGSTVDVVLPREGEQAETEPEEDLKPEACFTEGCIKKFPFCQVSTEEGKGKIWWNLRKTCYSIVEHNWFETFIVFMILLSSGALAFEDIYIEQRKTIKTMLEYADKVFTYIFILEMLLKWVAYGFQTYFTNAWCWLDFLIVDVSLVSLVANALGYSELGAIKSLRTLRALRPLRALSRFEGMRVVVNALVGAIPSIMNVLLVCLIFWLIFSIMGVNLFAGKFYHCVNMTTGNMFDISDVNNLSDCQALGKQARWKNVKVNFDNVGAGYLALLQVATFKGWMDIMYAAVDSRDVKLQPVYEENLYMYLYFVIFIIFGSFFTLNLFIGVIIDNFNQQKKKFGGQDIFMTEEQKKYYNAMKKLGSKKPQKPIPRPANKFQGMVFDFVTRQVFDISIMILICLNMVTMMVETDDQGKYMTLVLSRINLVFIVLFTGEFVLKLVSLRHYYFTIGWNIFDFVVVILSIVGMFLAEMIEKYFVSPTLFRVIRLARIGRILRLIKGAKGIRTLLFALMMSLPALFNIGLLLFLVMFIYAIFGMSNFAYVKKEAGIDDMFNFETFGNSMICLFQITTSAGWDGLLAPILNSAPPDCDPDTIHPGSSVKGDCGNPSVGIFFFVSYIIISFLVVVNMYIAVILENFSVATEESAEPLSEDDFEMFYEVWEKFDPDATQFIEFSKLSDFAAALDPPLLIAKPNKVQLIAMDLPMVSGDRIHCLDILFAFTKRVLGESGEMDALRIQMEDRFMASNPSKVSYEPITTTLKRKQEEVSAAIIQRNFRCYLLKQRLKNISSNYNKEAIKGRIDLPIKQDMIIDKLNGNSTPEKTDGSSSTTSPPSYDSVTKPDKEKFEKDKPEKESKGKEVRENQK

Row | Compound | IC50 (human Nav1.3 channels) [nM] | IC50 (human Nav1.7 channels) [nM]
1 | CC(=O)Nc1cc(C(=O)NCc2cnc(OCC(F)(F)F)c(C(F)(F)F)c2)cc(C)n1 [Example 727, 2-acetamido-6-methyl-N-((6-(2,2,2-trifluoroethoxy)-5-(trifluoromethyl)pyridin-3-yl)methyl)isonicotinamide] | < 1000 | –
2 | Cc1cc(CNC(=O)c2ccnc(NC(=O)C3CC3)n2)cc(OC(F)(F)F)c1 [Example 604, 2-(cyclopropanecarboxamido)-N-(3-methyl-5-(trifluoromethoxy)benzyl)pyrimidine-4-carboxamide] | < 1000 | –
3 | O=C(NCc1cc(C(F)(F)F)cc(C(F)(F)F)c1)c1ccnc(NC(=O)C2CC2)n1 [Example 736, N-(3,5-bis(trifluoromethyl)benzyl)-2-(cyclopropanecarboxamido)pyrimidine-4-carboxamide] | < 1000 | –
4 | CC(C)C(=O)Nc1cc(C(=O)NC(C)c2ccc(OCC(F)(F)C(F)F)nc2)ccn1 (single isomer, unassigned) [Example 654, 2-isobutyramido-N-(1-(6-(2,2,3,3-tetrafluoropropoxy)pyridin-3-yl)ethyl)isonicotinamide] | – | < 1000
5 | CC(=O)Nc1cc(C(=O)NC(C)c2ccc(OCC(F)(F)F)cc2Cl)cc(C)n1 (single isomer, unassigned) [Example 800, 2-acetamido-N-(1-(2-chloro-4-(2,2,2-trifluoroethoxy)phenyl)ethyl)-6-methylisonicotinamide] | – | < 1000
6 | Cc1cc(C(=O)NC(C)c2cccc(OC(F)(F)F)c2)cc(NC(=O)C2CC2)n1 (single isomer, unassigned) [Example 839, 2-(cyclopropanecarboxamido)-6-methyl-N-(1-(3-(trifluoromethoxy)phenyl)ethyl)isonicotinamide] | – | < 1000
7 | CC(=O)Nc1cc(C(=O)NCc2ccc(OCC(F)F)c(C)c2)ccn1 [Example 988, 2-acetamido-N-(4-(2,2-difluoroethoxy)-3-methylbenzyl)isonicotinamide] | – | < 1000
8 | CC(NC(=O)c1ccnc(NC(=O)C2CCC2)n1)c1cnc(OCC(F)(F)F)c(Cl)c1 (single isomer, unassigned) [Example 213, N-(1-(5-chloro-6-(2,2,2-trifluoroethoxy)pyridin-3-yl)ethyl)-2-(cyclobutanecarboxamido)pyrimidine-4-carboxamide] | – | < 1000
9 | Cc1cc(C(=O)NC(C)c2cnc(OCC(F)(F)F)c(F)c2)cc(NC(=O)C(C)C)n1 (single isomer, unassigned) [Example 486, N-(1-(5-fluoro-6-(2,2,2-trifluoroethoxy)pyridin-3-yl)ethyl)-2-isobutyramido-6-methylisonicotinamide] | – | < 1000
10 | CC(C)C(=O)Nc1cc(C(=O)NCc2ccc(OCC(F)(F)F)nc2N2CCOCC2)ccn1 [Example 282, 2-isobutyramido-N-((2-morpholino-6-(2,2,2-trifluoroethoxy)pyridin-3-yl)methyl)isonicotinamide] | – | < 1000
11 | Cc1cc(C(=O)NCc2cnc(OCC(F)(F)F)c(C)c2)nc(NC(=O)C2CC2)n1 [Example 365, 2-(cyclopropanecarboxamido)-6-methyl-N-((5-methyl-6-(2,2,2-trifluoroethoxy)pyridin-3-yl)methyl)pyrimidine-4-carboxamide] | – | < 1000
12 | COc1nc(OCC(F)F)ccc1C(C)NC(=O)c1ccnc(NC(=O)C2CC2)c1 (single isomer, unassigned) [Example 1162, 2-(cyclopropanecarboxamido)-N-(1-(6-(2,2-difluoroethoxy)-2-methoxypyridin-3-yl)ethyl)isonicotinamide] | – | < 1000
13 | COc1cc(OC(F)(F)F)ccc1CNC(=O)c1cc(C)nc(NC(C)=O)c1 [Example 870, 2-acetamido-N-(2-methoxy-4-(trifluoromethoxy)benzyl)-6-methylisonicotinamide] | – | < 1000
14 | COc1nc(OCC(F)F)ccc1CNC(=O)c1cc(C)nc(NC(=O)C(C)C)c1 [Example 1157, N-((6-(2,2-difluoroethoxy)-2-methoxypyridin-3-yl)methyl)-2-isobutyramido-6-methylisonicotinamide] | – | < 1000
15 | CC(C)C(=O)Nc1cc(C(=O)NC(C)c2cccc(SC(F)(F)F)c2)ccn1 (single isomer, unassigned) [Example 1030, 2-isobutyramido-N-(1-(3-((trifluoromethyl)thio)phenyl)ethyl)isonicotinamide] | – | < 1000
16 | CCC(=O)Nc1cc(C(=O)NCc2ccc(OCC(F)(F)F)nc2C)cc(C)n1 [Example 168, 2-methyl-N-((2-methyl-6-(2,2,2-trifluoroethoxy)pyridin-3-yl)methyl)-6-propionamidoisonicotinamide] | – | < 1000

The remaining lines, values ahead:

Row | IC50 (human Nav1.3 channels) [nM] | IC50 (human Nav1.7 channels) [nM] | Compound
17 | – | < 1000 | Cc1cc(C(=O)NC(C)c2ccc(OCC(F)(F)C(F)F)nc2)cc(NC(=O)C2CC2)n1 (single isomer, unassigned) [Example 828]
18 | – | < 1000 | CC(=O)Nc1cc(C(=O)N[C@H](C)c2cccc(C(F)(F)F)c2)cc(C)n1 (single isomer, unassigned) [Example 529]
19 | – | < 1000 | Cc1cc(C(=O)NC(C)c2cccc(OCC(F)(F)F)c2)cc(NC(=O)C(C)C)n1 (single isomer, unassigned) [Example 881, 2-isobutyramido-6-methyl-N-(1-(3-(2,2,2-trifluoroethoxy)phenyl)ethyl)isonicotinamide]
20 | – | < 1000 | CCC(=O)Nc1cc(C(=O)NCc2ccc(OCC(F)F)c(C)c2)ccn1 [Example 989, N-(4-(2,2-difluoroethoxy)-3-methylbenzyl)-2-propionamidoisonicotinamide]
21 | – | < 1000 | Cc1cc(C(=O)NCc2cccc(C(F)(F)F)c2F)cc(NC(=O)C(C)C)n1 [Example 876, N-(2-fluoro-3-(trifluoromethyl)benzyl)-2-isobutyramido-6-methylisonicotinamide]
22 | – | < 1000 | Cc1cc(C(=O)NC(C)c2ccc(OCC(F)F)c(Cl)c2)cc(NC(=O)C(C)C)n1 (single isomer, unassigned) [Example 1101, N-(1-(3-chloro-4-(2,2-difluoroethoxy)phenyl)ethl)-2-isobutyramido-6-methylisonicotinamide]
23 | – | < 1000 | Cc1cc(C(=O)NC(C)c2ccc(OCC(F)(F)C(F)F)nc2)cc(NC(=O)C(C)C)n1 (single isomer, unassigned) [Example 657, 2-isobutyramido-6-methyl-N-(1-(6-(2,2,3,3-tetrafluoropropoxy)pyridin-3-yl)ethyl)isonicotinamide]
24 | – | < 1000 | CCCC(=O)Nc1cc(C(=O)NC(C)c2cnc(OCC(F)F)c(C)c2)ccn1 (single isomer, unassigned) [Example 633, 2-butyramido-N-(1-(6-(2,2-difluoroethoxy)-5-methylpyridin-3-yl)ethyl)isonicotinamide]
25 | – | < 1000 | O=C(NCc1ccc(OCC(F)(F)C(F)F)nc1)c1ccnc(NC(=O)C2CC2)n1 [Example 651, 2-(cyclopropanecarboxamido)-N-((6-(2,2,3,3-tetrafluoropropoxy)pyridin-3-yl)methyl)pyrimidine-4-carboxamide]
26 | – | < 1000 | CC(NC(=O)c1ccnc(NC(=O)C2CC2)c1)c1ccc(OCC(C)(F)F)nc1 (single isomer, unassigned) [Example 782, 2-(cyclopropanecarboxamido)-N-(1-(6-(2,2-difluoropropoxy)pyridin-3-yl)ethyl)isonicotinamide]
27 | – | < 1000 | CC(=O)Nc1cc(C(=O)NCc2cnc(OCC(F)(F)F)c(C)c2)ccn1 [Example 367, 2-acetamido-N-((5-methyl-6-(2,2,2-trifluoroethoxy)pyridin-3-yl)methyl)isonicotinamide]
28 | – | < 1000 | CCC(=O)Nc1cc(C(=O)NCc2cc(F)c(OCC(F)(F)F)nc2OC)cc(C)n1 [Example 328, N-((5-fluoro-2-methoxy-6-(2,2,2-trifluoroethoxy)pyridin-3-yl)methyl)-2-methyl-6-propionamidoisonicotinamide]
29 | – | < 1000 | Cc1cc(C(=O)NC(C)c2ccc(OCC(F)(F)F)c(Cl)c2)cc(NC(=O)C(C)C)n1 (single isomer, unassigned) [Example 678, N-(1-(3-chloro-4-(2,2,2-trifluoroethoxy)phenyl)ethyl)-2-isobutyramido-6-methylisonicotinamide]
